# Measurements published in patent US9884832B2 (priority 2011, dated 2018).
# Tests used:
# [1] = molecular target: AM2 V27A (valine→alanine mutation at residue 27 in the M2 protein) (Influenza A virus, UniProt P0DOF5, V27A); format: cell-based, influenza virus A/Udorn/72
# [2] = molecular target: AM2 S31N (serine→asparagine mutation at residue 31 in the M2 protein) (Influenza A virus, UniProt P0DOF5, S31N); format: cell-based, influenza virus A/Udorn/72
SMILES,V27A OOcyte Inhibition at 100 uM (%) [1],S31N OOcyte Inhibition at 100 uM (%) [2]
"Clc1ccc(/C=C/CNC23CC4CC(CC(C4)C2)C3)cc1 [Example 200a, N-((E)-3-(4-chlorophenyl)allyl)adamantan-1-amine]",B (key: (A)=31-95%; (B)=0-30%),A (key: (A)=31-95%; (B)=0-30%)
"c1ccn2c(CNC34CC5CC(CC(C5)C3)C4)cnc2c1 [Example 203a, Adamantan-1-yl-imidazo[1,2-a]pyridin-3-ylmethyl-amine]",B (key: (A)=31-95%; (B)=0-30%),B (key: (A)=31-95%; (B)=0-30%)
"F[B-](F)(F)C[NH2+]C12CC3CC(CC(C3)C1)C2 [Example 204a, N-[(Trifluoro-4-boranyl)methyl]adamantan-1-aminium]",B (key: (A)=31-95%; (B)=0-30%),B (key: (A)=31-95%; (B)=0-30%)
"c1csc(-c2ccc(CNC3C4CC5CC(C4)CC3C5)s2)c1 (centres unmarked) [Example 205a, N-([2,2′-bithiophen]-5-ylmethyl)adamantan-2-amine]",B (key: (A)=31-95%; (B)=0-30%),A (key: (A)=31-95%; (B)=0-30%)
